The record followed here is patent publication US10072249B2, “Method of inducing kidney from pluripotent stem cells” (NATIONAL UNIVERSITY CORPORATION KUMAMOTO UNIVERSITY, priority 2013, dated 2018).

Assay [1] relates to Osr1-GFP+ cells from the caudal part of E9.5 embryos. Kind of assay: Culture of sorted E9.5 posterior Osr1-GFP+ cell aggregates, then colony-formation assay on Wnt4 feeder cells. In kind it is cell-based, mouse. The protocol: In vitro colony-formation assays were performed as described previously (Osafune et al., 2006). Briefly, progenitor cells were sorted by a FACS Aria II (Becton Dickinson) and plated onto NIH3T3 cells stably expressing Wnt4 at a low density (1,250-10,000 cells/well of 6-well plates). The cells were then cultured in DMEM/F12 containing 5% knockout serum replacement (Invitrogen), 10 μg/ml insulin, 6.7 μg/1 sodium selenite, 5.5 μg/ml transferrin, 1×10^−7 mol/l dexamethasone, 10 mmol/l nicotinamide, 2 mmol/l L-glutamine, 50 μmol/l 2-mercaptoethanol, 5 mmol/l HEPES and penicillin/streptomycin.
For embryonic tissue cultures at E8.5, the presomitic regions of 6-10 somite-stage embryos were harvested and T-GFP+ cells were sorted by FACS. The sorted cells were aggregated at 7,000 cells per aggregate in 96-well low-cell-binding plates and cultured in serum-free chemically-defined medium. In the embryonic tissue cultures at E9.5, the posterior regions from the 23rd somite region of 22-26 somite-stage embryos were harvested and Osr1-GFP+ or Wt1-GFP+ cells were sorted by FACS. The sorted cells were aggregated at 10,000 cells per aggregate in 96-well low-cell-binding plates and cultured in serum-free chemically-defined medium.
Induced cell aggregates from embryonic tissues or ES cells were dissociated by incubation with 0.25% trypsin for 5 min. After blocking in normal mouse serum (Thermo Scientific), cell surface marker staining was carried out in buffer comprising 1% bovine serum albumin, 1×HBSS and 0.035% NaHCO3. Data were analyzed with FlowJo software (Treestar).
RNA was isolated using an RNeasy Plus Micro Kit (Qiagen), and then reverse-transcribed with random primers and Superscript III (Invitrogen). Quantitative PCR was carried out using a Real-Time PCR System (Applied Biosystems) and Thunderbird SYBR qPCR Mix (Toyobo). All samples were normalized by the β-actin expression using the relative standard curve method.
To test the hypothesis, Osr1-GFP+ cells from the caudal part of E9.5 embryos were sorted, and were plated into low-cell-binding plates in the presence of the Rho kinase inhibitor Y27632, which supports cell survival. The cells spontaneously re-aggregated and formed spheres within 24 h.

The subject of assay [2] is Osr1-GFP ES cell line. Kind of assay: Induction of metanephric nephron progenitors from mouse ES cells. It counts as cell-based. The settings on record: low concentration, 24 h after 2 days of EB formation. The protocol:
Mouse ES cells (Osr1-GFP) were maintained on murine embryonic fibroblasts in DMEM (Invitrogen) supplemented with 15% fetal calf serum, 0.1 mM 2-mercaptoethanol (Nacalai Tesque) and 1,000 U/ml leukemia inhibitory factor (ESGRO). EB3-DsRed cells, gifts from Dr. Hitoshi Niwa (CDB RIKEN), were maintained as reported previously (Usui et al., Am. J. Pathol. 180, 2417-2426, 2012). Before the initiation of differentiation, the ES cells were passaged once onto feeder cell-free gelatin-coated dishes in DMEM (Invitrogen) supplemented with 15% fetal bovine serum, 0.1 mM 2-mercaptoethanol, 1,000 U/ml leukemia inhibitory factor, 3 μM CHIR99021 (Wako) and 1 μM PD0325901 (Wako). ES cell differentiation was carried out in serum-free medium as follows. […]
RNA was isolated using an RNeasy Plus Micro Kit (Qiagen), and then reverse-transcribed with random primers and Superscript III (Invitrogen). Quantitative PCR was carried out using a Real-Time PCR System (Applied Biosystems) and Thunderbird SYBR qPCR Mix (Toyobo). […]

Setting [3] is: exogenous addition to aggregate culture.

For the molecule `C[C@@H](N)[C@H]1CC[C@H](C(=O)Nc2ccncc2)CC1` [Y27632], in assay [1] (48 h of culture of aggregates in low-cell-binding plates), the “expressions of Pax2, Six2 and Gdnf compared with the starting point” value is reported as “more than 10 fold”. Further, the “Osr1+/Itga8+/Pdgfra− population (FACS)” value in assay [1] (cultured aggregates) was 10.0±0.01 % of the total cells. `Cc1c[nH]c(-c2cnc(NCCNc3ccc(C#N)cn3)nc2-c2ccc(Cl)cc2Cl)n1` [CHIR99021, 6-[[2-[[4-(2,4-dichlorophenyl)-5-(4-methyl-1H-imidazol-2-yl)-2-pyrimidinyl]amino]ethyl]amino]nicotinonitrile]: the “induction of colony-forming progenitors and nephric gene expressions” value (“induction” for short) in assay [1] (high concentrations, 3 or 10 μM) is listed as “inhibitory”. Also, in assay [1] (low concentration, 1 μM), the colony formation entry is listed as “slightly improved”.

B1: Bmp4: human Bmp4 growth factor (R&D Systems) (protein, UniProt P12644 293-408, looked up)
Bone morphogenetic protein 4: SPKHHSQRARKKNKNCRRHSLYVDFSDVGWNDWIVAPPGYQAFYCHGDCPFPLADHLNSTNHAIVQTLVNSVNSSIPKACCVPTELSAISMLYLDEYDKVVLKNYQEMVVEGCGCR
Take B1: the “induction” value in assay [1] (setting [3]) is recorded as “inhibitory”.

B2: activin: human activin A growth factor (R&D Systems) (protein, UniProt P08476 311-426, looked up)
Inhibin beta A chain: GLECDGKVNICCKKQFFVSFKDIGWNDWIIAPSGYHANYCEGECPSHIAGTSGSSLSFHSTVINHYRMRGHSPFANLKSCCVPTKLRPMSMLYYDDGQNIIKKDIQNMIVEECGCS
modifications: Inhibin beta A chain
Turning to B2, the “expression of the epiblast marker Fgf5” value in assay [2] was “induced transient expression”. In addition, in assay [1] (setting [3]), the “induction” value was “inhibitory”.
